The numbers were not newly measured in patent US20040142333A1, “Novel secreted proteins and their uses” (priority 2000, published 2004), which cites them from elsewhere.

Where a SMILES comes first, the peptide text is derived from it. [ ]: non-standard residue; d: D form. The star is where a group is joined. 4Abz = Nc1ccc(C(=O)O)cc1; NHOH = ON*

For data set [1], the system named is human metastatic melanoma (M24 cells).
Another data set deals with M24 cells. To be noted: murine metastasis model.
The target in another data set is T1, MMP-1 (Homo sapiens, UniProt P03956).
T1 sequence (P03956 100-469): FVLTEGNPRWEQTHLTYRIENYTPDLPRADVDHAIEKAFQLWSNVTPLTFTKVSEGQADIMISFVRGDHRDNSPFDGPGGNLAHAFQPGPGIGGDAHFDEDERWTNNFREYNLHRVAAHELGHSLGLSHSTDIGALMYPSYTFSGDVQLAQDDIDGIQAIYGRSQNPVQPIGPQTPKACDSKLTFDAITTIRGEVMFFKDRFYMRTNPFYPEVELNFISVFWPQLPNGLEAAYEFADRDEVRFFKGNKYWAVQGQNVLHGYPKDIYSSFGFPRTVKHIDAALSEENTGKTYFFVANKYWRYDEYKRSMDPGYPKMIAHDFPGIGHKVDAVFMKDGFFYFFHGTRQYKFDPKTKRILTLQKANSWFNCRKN
The settings on record: read-out: IC50 against MMP-1.

A further data set concerns the target MMP-8 (Homo sapiens, UniProt P22894). The settings on record: read-out: IC50 against MMP-8.
The next data set concerns the target MMP-9 (Homo sapiens, UniProt P14780). The settings on record: read-out: IC50 against MMP-9.
Another data set concerns the target MMP-3 (Homo sapiens, UniProt P08254). The settings on record: read-out: IC50 against MMP-3.

Sequence of MMP-8 (P22894 101-467, species assumed): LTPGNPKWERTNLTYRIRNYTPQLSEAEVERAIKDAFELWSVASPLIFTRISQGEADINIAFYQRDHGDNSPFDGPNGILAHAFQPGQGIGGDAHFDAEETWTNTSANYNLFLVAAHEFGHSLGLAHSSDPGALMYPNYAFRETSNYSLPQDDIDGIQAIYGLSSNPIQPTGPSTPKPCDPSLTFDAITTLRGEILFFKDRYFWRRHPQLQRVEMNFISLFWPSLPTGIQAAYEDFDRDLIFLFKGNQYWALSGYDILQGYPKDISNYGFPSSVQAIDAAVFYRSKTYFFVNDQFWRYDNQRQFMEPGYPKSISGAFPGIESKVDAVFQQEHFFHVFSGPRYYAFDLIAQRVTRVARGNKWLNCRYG
Sequence of MMP-9 (P14780 94-707, species assumed): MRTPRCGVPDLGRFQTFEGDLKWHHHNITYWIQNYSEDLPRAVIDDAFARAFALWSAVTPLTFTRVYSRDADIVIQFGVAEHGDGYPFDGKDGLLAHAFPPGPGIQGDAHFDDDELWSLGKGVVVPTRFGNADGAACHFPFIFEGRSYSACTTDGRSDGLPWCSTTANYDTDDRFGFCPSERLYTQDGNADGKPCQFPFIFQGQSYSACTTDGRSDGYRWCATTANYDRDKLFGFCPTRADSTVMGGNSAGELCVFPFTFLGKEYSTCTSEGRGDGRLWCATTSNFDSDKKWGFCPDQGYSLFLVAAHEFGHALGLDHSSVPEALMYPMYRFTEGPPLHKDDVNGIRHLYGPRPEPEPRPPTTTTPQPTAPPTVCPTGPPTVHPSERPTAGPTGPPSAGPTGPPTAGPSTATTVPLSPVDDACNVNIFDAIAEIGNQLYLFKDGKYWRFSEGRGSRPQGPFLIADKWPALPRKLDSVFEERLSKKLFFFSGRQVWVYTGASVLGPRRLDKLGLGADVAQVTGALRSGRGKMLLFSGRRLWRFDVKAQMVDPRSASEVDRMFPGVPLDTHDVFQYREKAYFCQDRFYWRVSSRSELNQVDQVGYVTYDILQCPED
Sequence of MMP-3 (P08254 100-477, species assumed): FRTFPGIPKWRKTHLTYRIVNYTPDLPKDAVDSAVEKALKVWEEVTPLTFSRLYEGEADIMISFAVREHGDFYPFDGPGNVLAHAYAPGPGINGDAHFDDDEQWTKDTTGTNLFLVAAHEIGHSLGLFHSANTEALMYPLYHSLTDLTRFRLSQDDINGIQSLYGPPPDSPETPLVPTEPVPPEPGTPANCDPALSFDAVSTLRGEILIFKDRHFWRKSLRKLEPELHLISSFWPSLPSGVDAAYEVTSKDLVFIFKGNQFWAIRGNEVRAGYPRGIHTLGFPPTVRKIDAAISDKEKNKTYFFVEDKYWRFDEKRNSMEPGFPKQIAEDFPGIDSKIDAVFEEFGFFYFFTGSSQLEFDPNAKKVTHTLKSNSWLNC

With contortrostatin, in data set [1], the “cell adhesion to type I collagen, vitronectin, and fibronectin” value was “inhibit”. Besides, the “lung colonization of M24 cells” value in the data set on M24 cells is “inhibits lung colonization”.
With `CC(C)C[C@@H](NC(=O)[C@@H]1CCCN1C(=O)CNC(=O)c1ccc(N)cc1)C(=O)N[C@H](C)C(=O)NO` [MMP inhibitor I] (H-[4Abz]GP[dL][dA]-{NHOH}), the 50% inhibitory concentration (IC50) (usually the point on the concentration scale where inhibition reaches its midpoint) is 1000 nM at MMP-1, 1000 nM at MMP-8, 30 µM at MMP-9 and 150 µM at MMP-3.
